The structures appear in SMILES notation. Marks after values point to notes of the source that are not given here.

Series [1] deals with Salmonella typhimurium TA102. Kind of series: AMES test, mutagenic evaluation in Salmonella typhimurium TA102 strain with/without metabolic activation (S9). The format is cell-based. As to the method:
The procedure was firstly developed by (MARON, D. M. and AMES, B. N. Mut. Res. v. 113, pp. 173-215, 1983)
For this assay, Salmonella typhimurium TA100 and TA102 strains from the mutagenicity laboratory of the “Faculdade de Ciências Farmacêuticas—UNESP Araraquara” were used. Such strains have the following characteristics: (AMES, 1983)
The positive controls are mutagenic compounds specific for each strain and test condition, with 25 μL/plate of sodium azide (1.25 μg/plate) and 100 μL of mitomycin (0.5 μg/plate) being the controls for TA100 and TA102, respectively, in the absence of metabolic activation. For assays with metabolic activation, the positive control for TA100 is 50 μL 2-antramine (1.25 μg/plate) and for TA102 it is 50 μL 2-aminofluorene (1.25 μg/plate).
The preincubation method was used.
In laminar flow, Salmonella typhimurium (TA100 and TA 102) strains were inoculated individually with a platinum loop, in the respective nutrient broths and maintained at 37° C., under constant stirring (160 rpm) during 14 hours, in order to achieve a density of 1 to 2×10^9 bacteria/mL.
Different concentrations of the compounds were added into 100 μL of 0.2M phosphate buffer pH 7.4 (or 500 μL of the mixture S9 in metabolic activation assays) and incubated for 20-30 minutes at 37° C. Solutions containing the compounds had DMSO as the solvent. Thereafter, 2 mL of top agar supplemented with traces of histidine and biotin was added, homogenized and plated in glycosylated minimum medium. After solidification of the top agar, the plates were incubated for 48 hours at a 37° C. Then, the counting of the number of revertant colonies per plate was performed. All tested concentrations, positive and negative controls were run in triplicate.
After 48 hours, the revertant colonies were counted manually, and the protoCOL Colony Counter Version 3.15.630 (1998-2001) SYNBIOSIS LTD system was used for the positive control.
The final data obtained from the assay was analyzed using the statistical software Salanal (Salmonella Assay Analysis) version 1.0 from the Research Triangle Institute, RTP, North Carolina, USA. Such software allows the dose-response effect to be evaluated by means of analysis of variance (ANOVA-test F) computations between the measurement of the number of revertants at the different tested concentrations (doses) and the negative control, followed by a linear regression. The software model chosen for analyzing the data was Bernstein's (BERNSTEIN, L. et al. Mutat. Res. v. 97, p. 267-281, 1982). The slope of the straight line from the linear portion of the dose-response curve is also provided by this software and corresponds to the number of revertants induced per measurement unit of the analyzed sample.
From the results, the mutagenicity ratio (MR) was computed for each analyzed dose from each compound. MR is given by the following equation:
MR=average number of revertants per test plate (spontaneous+induced revertants) […] average number of revertants per plate of the negative control (spontaneous revertants)
The spontaneous growing means that the number of revertants which developed on the plate, regardless of being induced or not, wherein values higher or equal to 2 are considered as a positive response (VALENT, G. V. et al. Env. Toxicol. Water Quality. v. 8, p. 371-381, 1993).
The mutagenicity test with metabolic activation system was performed with a microsomal fraction S9 (S9 mix) prepared from a liver homogenizate from Sprague Dawley rats, previously treated with Aroclor 1254, acquired in the freeze-dried form.
The procedure for this assay is the same, however, instead of the buffer, 500 μL of the S9 mixture should be added.
The S9 mixture has a viability of 4 hours from preparation when put on ice. The plates are then incubated for 48 hours at 37° C. After the required time has elapsed, the counting of the revertant colonies was carried out. All tested concentrations, positive and negative controls were run in triplicate.

In series [2] the test system is mouse ear edema induced by capsaicin. Kind of series: Mouse ear edema assay induced by capsaicin. The format is in vivo. As to conditions: 300 μmol/Kg i.p., capsaicin 250 μg/ear 1 hour after administration. The procedure: This assay is characterized by an acute inflammatory response of the ear, with development of edema, and it was performed in order to evaluate the anti-inflammatory activity of the synthesized compounds.
In this assay, indomethacin was used as a control at 100 μmol/Kg, and the phthalimide derivatives were firstly evaluated at 300 μmol/Kg via i.p. From table 4, it can be observed that compounds IC and IE show an ear edema inhibition percentage higher than 64%. […] The other compounds, however, show a similar activity when compared to indomethacin (FIG. 01), taking into consideration the standard error.
This assay was performed using Swiss mice from both genders weighing from 18 to 30 grams. The animals were fasted for 8 hours with free access to water. This assay consists in locally administering (right ear) 20 μl of a capsaicin solution (250 μg/ear) diluted in acetone, 1 hour after the i.p. administration (diluted in 0.5% gum arabic). The left ear (control) received the carrier in which capsaicin was diluted (acetone) and the right ear received capsaicin. This assay is characterized by an acute inflammatory response of the ear, with development of edema. The animals were sacrificed and their ears were weighted to obtain the inflammation index. A biopsy (8 mm in diameter) of the ear was carried out. Next, the weights of the inflamed ears were compared against the weights of the contralateral ear (control ear) which were not treated with the phlogistic agent. The edema inhibition percentage was calculated by subtracting the ear treated with the carrier by that treated with capsaicin from each group of animals treated with the test substances, and then it was divided by the difference between the groups of the irritating agents and the control groups.

The test system of series [3] is leukocyte infiltration, peritonitis induced by thioglycolate. Kind of series: Peritonitis assay induced by 3% thioglycolate. The series is classed as in vivo. As to conditions: 300 μMol/Kg orally, mouse, 3% thioglycolate i.p., 4 h. The procedure: In a second assay, the number of total leukocytes (10^6/mL) was evaluated in order to evaluate the ability to inhibit their infiltration in the inflammatory process.
The mice were treated with the substances being analyzed or carrier and after 1 h of oral administration, they were simultaneously subjected to the peritonitis assay, by administering intraperitoneally 1 ml of a 3% thioglycolate solution. 4 h after the administration of thioglycolate, the peritoneal cavity was washed with 3 ml of a HANKS solution (Balanced salt solution, free of Ca^2+ and Mg^2+). Next, the peritoneal wash was analyzed and the total counting of white blood cells was made in a Newbauer's chamber under an optical microscope with a 40× objective.

Consider `O=C1c2ccccc2C(=O)N1CCO[N+](=O)[O-]` [IB, 2-(1,3-dioxo-1,3-dihydro-2H-isoindol-2-yl)ethyl nitrate], for which the “mutagenicity ratio (MR)” value in series [1] (TA 102, +S9, 0.01 μmol/plate) is reported as 1.13; in series [1] (TA 102, +S9, 0.021 μmol/plate) it was 1.22; in series [1] (TA 102, +S9, 0.042 μmol/plate) it was 1.09; in series [1] (TA 102, +S9, 0.085 μmol/plate) it was 1.12; in series [1] (TA 102, +S9, 0.17 μmol/plate), 0.97; in series [1] (TA 102, −S9, 0.01 μmol/plate) it was 1.22. In addition, the “mutagenicity ratio (MR)” value in series [1] (TA 102, −S9, 0.021 μmol/plate) is given as 1.55; in series [1] (TA 102, −S9, 0.042 μmol/plate), 1.25; in series [1] (TA 102, −S9, 0.085 μmol/plate), 1.34; in series [1] (TA 102, −S9, 0.17 μmol/plate) it was 1.54. The “number of revertants per plate” value stood at 249 ± 11.7 revertants/plate in series [1] (TA 102, +S9, 0.01 μmol/plate); 269 ± 10.6 revertants/plate in series [1] (TA 102, +S9, 0.021 μmol/plate); 239 ± 22.5 revertants/plate in series [1] (TA 102, +S9, 0.042 μmol/plate); 247 ± 21.4 revertants/plate in series [1] (TA 102, +S9, 0.085 μmol/plate); 214 ± 32 revertants/plate in series [1] (TA 102, +S9, 0.17 μmol/plate); 394 ± 30 revertants/plate in series [1] (TA 102, −S9, 0.01 μmol/plate). For the same compound, the “number of revertants per plate” value was determined as 452 ± 23 revertants/plate in series [1] (TA 102, −S9, 0.021 μmol/plate); 502 ± 14 revertants/plate in series [1] (TA 102, −S9, 0.042 μmol/plate); 405 ± 24 revertants/plate in series [1] (TA 102, −S9, 0.085 μmol/plate); 433 ± 35.4 revertants/plate in series [1] (TA 102, −S9, 0.17 μmol/plate). The “Average inhibition % (ear edema)” value in series [2] is reported as 46.55%. Also, the “Cell Number avg (×106), total leukocytes” value in series [3] was 2.73 ×106. The “Inhibition % (leukocyte infiltrate)” value in series [3] is 51.25* %.
For `O=C1c2ccccc2C(=O)N1c1ccc(CO[N+](=O)[O-])cc1` [ID, 4-(1,3-dioxo-1,3-dihydro-2H-isoindol-2-yl)benzyl nitrate], the “mutagenicity ratio (MR)” value in series [1] (TA 102, +S9, 0.224 μmol/plate) worked out at 1.09; in series [1] (TA 102, +S9, 0.488 μmol/plate) it was 1.16; in series [1] (TA 102, +S9, 0.896 μmol/plate), 0.99; in series [1] (TA 102, +S9, 1.8 μmol/plate) it was 1.06; in series [1] (TA 102, +S9, 3.58 μmol/plate), 1.14; in series [1] (TA 102, −S9, 0.224 μmol/plate), 1.31. The “mutagenicity ratio (MR)” value is listed as 1.43 in series [1] (TA 102, −S9, 0.488 μmol/plate); 1.5 in series [1] (TA 102, −S9, 0.896 μmol/plate); 1.87 in series [1] (TA 102, −S9, 1.8 μmol/plate); 1.62 in series [1] (TA 102, −S9, 3.58 μmol/plate). The “number of revertants per plate” value was 405.7 ± 13 revertants/plate in series [1] (TA 102, +S9, 0.224 μmol/plate); 434.7 ± 21 revertants/plate in series [1] (TA 102, +S9, 0.488 μmol/plate); 370 ± 6 revertants/plate in series [1] (TA 102, +S9, 0.896 μmol/plate); 397.3 ± 9.3 revertants/plate in series [1] (TA 102, +S9, 1.8 μmol/plate); 427.3 ± 5 revertants/plate in series [1] (TA 102, +S9, 3.58 μmol/plate); 340.3 ± 9.7 revertants/plate in series [1] (TA 102, −S9, 0.224 μmol/plate). In addition, the “number of revertants per plate” value in series [1] (TA 102, −S9, 0.488 μmol/plate) stood at 373.5 ± 21 revertants/plate; in series [1] (TA 102, −S9, 0.896 μmol/plate), 391.2 ± 6.3 revertants/plate; in series [1] (TA 102, −S9, 1.8 μmol/plate), 486.8 ± 20 revertants/plate; in series [1] (TA 102, −S9, 3.58 μmol/plate), 420 ± 8.6 revertants/plate. Further, the “Average inhibition % (ear edema)” value in series [2] was 37.18%. Also, in series [3], the “Cell Number avg (×106), total leukocytes” value was 3.8 ×106. In addition, the “Inhibition % (leukocyte infiltrate)” value in series [3] amounted to 32.14%.
